# US8470828B2, “Anellated pyridine compounds” (Hoffmann-La Roche Inc., priority 2010, dated 2013)
# How the values were obtained:
# human D3 receptor = human D3 receptor (Homo sapiens, UniProt P35462); experiment: Radioligand binding to cloned human D3 receptor expressed in HEK-293 EBNA cells ([3H]-spiperone)
# Method: (§1) HEK293 EBNA cells were transiently transfected with expression plasmids encoding for the human D2 or D3 or for the human 5-HT2A receptor, respectively. The cells were harvested 48 h post-transfection, washed three times with cold PBS and stored at −80° C. prior to use. The pellet was suspended in cold 50 mM Tris-HCl buffer comprising 10 mM EDTA (pH 7.4) and was homogenized with a Polytron (Kinematica A G, Basel, Switzerland) for 20-30 sec at 12.000 rpm. After centrifugation at 48.000×g for 30 min at 4° C., the pellet was resuspended in cold 10 mM Tris-HCl buffer comprising 0.1 mM EDTA (pH 7.4), homogenized, and centrifuged as above. This pellet was further resuspended in a smaller volume of ice cold 10 mM Tris-HCl buffer comprising 0.1 mM EDTA (pH 7.4) and homogenized with a Polytron for 20-30 sec at 12.000 rpm. The protein content of this homogenate was determined with the Bio-Rad (Bradford) Protein Assay (Biorad Laboratories GmbH, München, Germany) according to the instructions of the manufacturer using gamma globulin as the standard. This homogenate was stored at −80° C. in aliquots and thawed immediately prior to use.
# (§2) Aliquots of membrane preparations were thawed at RT, resupended in assay buffer (D2, D3: 50 mM Tris-HCl, 120 mM NaCl, 5 mM MgCl2, 1 mM EDTA, 5 mM KCl, 1.5 mM CaCl2, pH=7.4; 5-HT2A: 50 mM Tris-HCl, 10 mM MgCl2, 1 mM EGTA, pH=7.4), homogenized with a Polytron for 20-30 sec at 12.000 rpm and adjusted to a final concentration of approximately 7.5 μg protein/well (D2, D3) and 15 μg protein/well (5-HT2A), respectively.
# (§3) The binding affinity (Ki) of the compounds was determined using radioligand binding. Membranes were incubated in a total volume of 200 μl with a fixed concentration of radioligand (final concentration approximately 0.7 nM [^3H]-spiperone for D2, 0.5 nM [^3H]-spiperone for D3, and 1.1 nM [^3H]-ketanserin for 5-HT2A) and ten concentrations of test compound in ranging between 10 μM-0.1 nM for 1 h at RT. At the end of the incubation, the reaction mixtures were filtered on to unifilter 96-well white microplates with bonded GF/C filters (Packard BioScience, Zürich, Switzerland; preincubated for 1 h in 0.1% polyethylenimine (PEI) in assay buffer) with a Filtermate 196 harvester (Packard BioScience) and washed 3 times with cold assay buffer. The nonspecific binding was determined with equally composed reaction mixtures in the presence of 10 μM unlabelled spiperone. Per well 45 μl of Microscint 40 (Perkin Elmer, Schwerzenbach, Switzerland) was added, plates for sealed, shaken for 20 min and counted for 3 min on a Topcount Microplate Scintillation Counter (Can berra Packard S A, Zürich, Switzerland) with quenching correction.
# (§4) The CPM value for each duplicate of a concentration of competing compound was averaged (y1), then the % specific binding was calculated according to the equation (((y1−non-specific)/(total binding−non-specific))×100). Graphs were plotted with the % specific binding using XLfit, a curve fitting program that iteratively plots the data using Levenberg-Marquardt algorithm. The single site competition analysis equation used was y=A+((B−A)/(1+((x/C)D))), where y is the % specific binding, A is the minimum y, B is the maximum y, C is the IC50, x is the log 10 of the concentration of the competing compound and D is the slope of the curve (the Hill Coefficient). […] The affinity constant (Ki) was calculated using the Cheng-Prusoff equation Ki=(IC50/1+([L]/Kd), where [L] is the concentration of radioligand and Kd is the dissociation constant of the radioligand at the receptor as determined by the saturation isotherm.
# human 5-HT2A receptor = human 5-HT2A receptor (Homo sapiens, UniProt P28223); experiment: Radioligand binding to cloned human 5-HT2A receptor expressed in HEK-293 EBNA cells ([3H]-ketanserin)
# Sequence of human 5-HT2A receptor (P28223 whole entry): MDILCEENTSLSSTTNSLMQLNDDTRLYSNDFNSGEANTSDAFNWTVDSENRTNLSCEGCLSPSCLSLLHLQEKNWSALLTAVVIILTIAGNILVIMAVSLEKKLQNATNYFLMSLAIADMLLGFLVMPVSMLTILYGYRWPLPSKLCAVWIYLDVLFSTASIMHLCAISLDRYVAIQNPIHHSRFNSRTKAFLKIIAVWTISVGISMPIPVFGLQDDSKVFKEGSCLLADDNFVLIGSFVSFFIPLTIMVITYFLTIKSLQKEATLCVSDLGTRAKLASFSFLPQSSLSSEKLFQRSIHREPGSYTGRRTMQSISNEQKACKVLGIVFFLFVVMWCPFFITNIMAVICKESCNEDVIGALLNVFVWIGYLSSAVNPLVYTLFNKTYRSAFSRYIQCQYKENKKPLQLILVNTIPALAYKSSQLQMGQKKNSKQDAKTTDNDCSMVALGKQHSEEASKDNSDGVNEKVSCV
# human D2 receptor = molecular target: T1, human D2 receptor (Homo sapiens, UniProt P14416); experiment: Radioligand binding to cloned human D2 receptor expressed in HEK-293 EBNA cells ([3H]-spiperone); conditions: HEK293 EBNA cell membranes, approximately 0.7 nM [3H]-spiperone, 1 h at RT
# T1 construct: expressed in transfected cells; host or cells: HEK293 EBNA cells, transient transfection; membrane preparation
# T1 sequence (P14416 whole entry): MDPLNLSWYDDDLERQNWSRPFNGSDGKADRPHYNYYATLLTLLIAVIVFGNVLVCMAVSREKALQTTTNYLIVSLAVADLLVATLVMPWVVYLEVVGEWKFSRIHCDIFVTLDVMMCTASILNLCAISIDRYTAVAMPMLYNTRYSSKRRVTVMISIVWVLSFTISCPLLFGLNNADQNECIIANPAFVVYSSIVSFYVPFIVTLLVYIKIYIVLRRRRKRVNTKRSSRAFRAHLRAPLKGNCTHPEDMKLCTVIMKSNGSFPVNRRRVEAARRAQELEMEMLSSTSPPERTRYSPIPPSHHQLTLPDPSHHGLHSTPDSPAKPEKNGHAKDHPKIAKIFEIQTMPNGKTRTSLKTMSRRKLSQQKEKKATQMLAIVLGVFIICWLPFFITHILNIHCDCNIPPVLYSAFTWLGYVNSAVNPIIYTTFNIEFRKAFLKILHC
# Method: as §1, §2, §3, §4
# Sequence of human D3 receptor (P35462 whole entry): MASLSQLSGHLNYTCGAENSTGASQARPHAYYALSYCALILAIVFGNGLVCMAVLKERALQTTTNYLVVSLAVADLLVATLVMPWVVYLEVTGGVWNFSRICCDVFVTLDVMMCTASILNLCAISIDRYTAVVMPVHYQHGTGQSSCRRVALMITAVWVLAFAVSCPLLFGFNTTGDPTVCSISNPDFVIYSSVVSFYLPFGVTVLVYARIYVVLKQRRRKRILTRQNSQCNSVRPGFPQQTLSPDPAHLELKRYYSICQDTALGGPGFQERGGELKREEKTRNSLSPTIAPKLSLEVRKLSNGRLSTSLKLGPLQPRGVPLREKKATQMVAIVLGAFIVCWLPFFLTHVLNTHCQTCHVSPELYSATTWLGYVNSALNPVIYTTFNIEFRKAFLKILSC
SMILES,Ki (human D3 receptor) [nM],melting point [°C],Ki (human 5-HT2A receptor) [nM],D2 Ki (human D2 receptor),Ki (human D2 receptor) [nM]
"Cc1cc(CC(=O)N[C@H]2CC[C@H](CCN3CCN(c4nccc5c4OCC5)CC3)CC2)on1 [Example 43, trans-N-(4-{2-[4-(2,3-Dihydro-furo[2,3-c]pyridin-7-yl)-piperazin-1-yl]-ethyl}-cyclohexyl)-2-(3-methyl-isoxazol-5-yl)-acetamide]",2.68,222.5,41.2,,3710
"CCCC(=O)N[C@H]1CC[C@H](CCN2CCN(c3nccc4c3OCC4)CC2)CC1 [Example 45, trans-N-(4-{2-[4-(2,3-Dihydro-furo[2,3-c]pyridin-7-yl)-piperazin-1-yl]-ethyl}-cyclohexyl)-butyramide]",10.1,183,50.1,,731
"O=C(N[C@H]1CC[C@H](CCN2CCN(c3nccc4c3OCC4)CC2)CC1)c1ccc(F)cc1 [Example 40, trans-N-(4-{2-[4-(2,3-Dihydro-furo[2,3-c]pyridin-7-yl)-piperazin-1-yl]-ethyl}-cyclohexyl)-4-fluoro-benzamide]",8.93,235.5,22.1,,1650
"CC(=O)N[C@H]1CC[C@H](CCN2CCN(c3nccc4ccoc34)CC2)CC1 [Example 10, trans-N-{4-[2-(4-Furo[2,3-c]pyridin-7-yl-piperazin-1-yl)-ethyl]-cyclohexyl}-acetamide]",6.44,157,18.8,,684
"O=C(N[C@H]1CC[C@H](CCN2CCN(c3nccc4c3OCC4)CC2)CC1)c1ccc(-n2cccc2)cc1 [Example 66, trans-N-(4-{2-[4-(2,3-Dihydro-furo[2,3-c]pyridin-7-yl)-piperazin-1-yl]-ethyl}-cyclohexyl)-4-pyrrol-1-yl-benzamide]",13.8,236.5,38,,240
"O=C(N[C@H]1CC[C@H](CCN2CCN(c3nccc4c3OCC4)CC2)CC1)C1CCOC1 (stereo partly drawn) [Example 34, Tetrahydro-furan-3-carboxylic acid trans-(4-{2-[4-(2,3-dihydro-furo[2,3-c]pyridin-7-yl)-piperazin-1-yl]-ethyl}-cyclohexyl)-amide]",7.43,195,28,,172

# Continued, values first:
Ki (human D3 receptor) [nM],melting point [°C],Ki (human 5-HT2A receptor) [nM],D2 Ki (human D2 receptor),Ki (human D2 receptor) [nM],SMILES
6.22,222,21.9,inactive,,"O=C(N[C@H]1CC[C@H](CCN2CCN(c3nccc4c3OCC4)CC2)CC1)c1ccnc2ccccc12 [Example 39, Quinoline-4-carboxylic acid trans-(4-{2-[4-(2,3-dihydro-furo[2,3-c]pyridin-7-yl)-piperazin-1-yl]-ethyl}-cyclohexyl)-amide]"
3.34,197.5,33.3,,184,"O=C(CC1CC1)N[C@H]1CC[C@H](CCN2CCN(c3nccc4c3OCC4)CC2)CC1 [Example 30, trans-2-Cyclopropyl-N-(4-{2-[4-(2,3-dihydro-furo[2,3-c]pyridin-7-yl)-piperazin-1-yl]-ethyl}-cyclohexyl)-acetamide]"
8.85,168.5,55.5,,633,"COC(C)CC(=O)N[C@H]1CC[C@H](CCN2CCN(c3nccc4c3OCC4)CC2)CC1 (mixture of isomers) [Example 101, trans-N-(4-{2-[4-(2,3-Dihydro-furo[2,3-c]pyridin-7-yl)-piperazin-1-yl]-ethyl}-cyclohexyl)-(RS)-3-methoxy-butyramide]"
3.19,187,44.9,,350,"CC(C)CC(=O)N[C@H]1CC[C@H](CCN2CCN(c3nccc4c3OCC4)CC2)CC1 [Example 24, trans-N-(4-{2-[4-(2,3-Dihydro-furo[2,3-c]pyridin-7-yl)-piperazin-1-yl]-ethyl}-cyclohexyl)-3-methyl-butyramide]"
7.49,193,32.3,,102,"O=C(N[C@H]1CC[C@H](CCN2CCN(c3nccc4c3OCC4)CC2)CC1)C1CC1 [Example 36, trans-Cyclopropanecarboxylic acid (4-{2-[4-(2,3-dihydro-furo[2,3-c]pyridin-7-yl)-piperazin-1-yl]-ethyl}-cyclohexyl)-amide]"
